Key:
spring wheat (TRZAS) = experiment: Postemergence greenhouse trial, % visual injury on spring wheat; format: in vivo, Triticum aestivum
Procedure, shortened: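 Postemergence greenhouse spray (187 L/ha, 1.5% v/v Agri-dex in water, acetone/DMSO stocks) on plants at second–third true leaf stage, ~23/22 °C, 14 h photoperiod; herbicides in g ae/ha, safener cloquintocet-mexyl in g ai/ha. Visual injury 0–100% versus solvent-blank controls after 20–22 d; Colby's equation gave expected mixture effects.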

shepherd's purse (CAPBP) = experiment: Postemergence greenhouse trial, % visual injury on shepherd's purse; format: in vivo, Capsella bursa-pastoris; conditions: alone
lambsquarters (CHEAL) = experiment: Postemergence greenhouse trial, % visual injury on lambsquarters; format: in vivo, Chenopodium album; conditions: for % visual injury, Ob / % visual injury, observed (Ob): CHEAL
Procedure, shortened: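 Plants at second or third true leaf stage, greenhouse-grown (14 h photoperiod, ~23/22° C.), sprayed postemergence with compounds alone or with safener cloquintocet-mexyl in 1.5% v/v Agri-dex crop oil at 187 L/ha. Visual injury scored 0–100% versus solvent-blank controls after 20-22 d; expected mixture effects by Colby's equation.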

wild chamomile (MATCH) = experiment: Postemergence greenhouse trial, % visual injury on wild chamomile; format: in vivo, Matricaria chamomilla
Experimental: Seeds of the desired test plant species were planted in Sun Gro MetroMix® 306 planting mixture, which typically has a pH of 6.0 to 6.8 and an organic matter content of about 30 percent, in plastic pots with a surface area of 103.2 square centimeters (cm^2). When required to ensure good germination and healthy plants, a fungicide treatment and/or other chemical or physical treatment was applied. The plants were grown for 7-36 days (d) in a greenhouse with an approximate 14-hour (h) photoperiod which was maintained at about 23° C. during the day and 22° C. during the night. Nutrients and water were added on a regular basis and supplemental lighting was provided with overhead metal halide 1000-Watt lamps as necessary. The plants were employed for testing when they reached the second or third true leaf stage.
Weighed amounts of technical material were dissolved in a volume of 97:3 volume per volume (v/v) acetone/dimethyl sulfoxide (DMSO) to stock solutions. […] The concentrated stock solutions were diluted with an aqueous mixture of 1.5% v/v of Agri-dex crop oil concentrate to provide the appropriate application rates. Compound requirements are based upon a 12 milliliter (mL) application volume at a rate of 187 liters per hectare (L/ha). Stocks solutions of the safeners were prepared following the same procedure. Spray solutions of the safeners and experimental compound mixtures were prepared by adding the stock solutions to the appropriate amount of dilution solution to form a 12 mL spray solution in two-way combinations. Formulated compounds were applied to the plant material with an overhead Mandel track sprayer equipped with 8002E nozzles calibrated to deliver 187 L/ha over an application area of 0.503 square meters (m^2) at a spray height of 18 inches (43 centimeters (cm)) above average plant canopy. Control plants were sprayed in the same manner with the solvent blank. All herbicide application (component a) rates are in g ae/ha and all safener (component b) rates are in g ai/ha.
The treated plants and control plants were placed in a greenhouse as described above and watered by sub-irrigation to prevent wash-off of the test compounds. After 20-22 d, the condition of the test plants as compared with that of the control plants was determined visually and scored on a scale of 0 to 100 percent where 0 corresponds to no injury and 100 corresponds to complete kill. […] Colby's equation was used to determine the herbicidal effects expected from the mixtures. […]

common poppy (PAPRH) = experiment: Postemergence greenhouse trial, % visual injury on common poppy; format: in vivo, Papaver rhoeas; conditions: PAPRH
Procedure, shortened: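 Herbicide rates g ae/ha, safener (cloquintocet-mexyl) rates g ai/ha; spray carrier 1.5% v/v crop oil concentrate, 187 L/ha, 2nd–3rd leaf stage. Rating: visual % injury at 20-22 d.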

CCCCCC(C)OC(=O)COc1ccc(Cl)c2cccnc12 (centres unmarked) [CQC-m, cloquintocet-mexyl, reference compound]
0%: % visual injury, Ob (spring wheat (TRZAS); TRZAS, 4.375 g/ha, applied alone) | % visual injury, Ob (spring wheat (TRZAS); TRZAS, 8.75 g/ha, applied alone) | % visual injury, Ob (spring wheat (TRZAS); TRZAS, 17.5 g/ha, applied alone) | % visual injury, Ob (spring wheat (TRZAS); TRZAS, 35 g/ha, applied alone) | % visual injury, Ob (spring wheat (TRZAS); TRZAS, 70 g/ha, applied alone) | % visual injury, Ob (spring wheat (TRZAS); TRZAS, compound 0, CQC-m 4.375 g/ha) | % visual injury, Ob (spring wheat (TRZAS); TRZAS, compound 0, CQC-m 8.75 g/ha) | % visual injury, Ob (spring wheat (TRZAS); TRZAS, compound 0, CQC-m 17.5 g/ha) | % visual injury, Ob (spring wheat (TRZAS); TRZAS, compound 0, CQC-m 35 g/ha) | % visual injury, Ob (spring wheat (TRZAS); TRZAS, compound 0, CQC-m 70 g/ha) | % visual injury, Ob (spring wheat (TRZAS); TRZAS, compound 0 g/ha, CQC-m 4.375 g/ha) | % visual injury, Ob (spring wheat (TRZAS); TRZAS, compound 0 g/ha, CQC-m 8.75 g/ha) | % visual injury, Ob (spring wheat (TRZAS); TRZAS, compound 0 g/ha, CQC-m 17.5 g/ha) | % visual injury, Ob (spring wheat (TRZAS); TRZAS, compound 0 g/ha, CQC-m 35 g/ha) | % visual injury, Ob (spring wheat (TRZAS); TRZAS, compound 0 g/ha, CQC-m 70 g/ha) | % visual injury, observed (Ob) (spring wheat (TRZAS); TRZAS, compound 8 0 + CQC-m 4.375 g/ha) | % visual injury, observed (Ob) (spring wheat (TRZAS); TRZAS, compound 8 0 + CQC-m 8.75 g/ha) | % visual injury, observed (Ob) (spring wheat (TRZAS); TRZAS, compound 8 0 + CQC-m 17.5 g/ha) | % visual injury, observed (Ob) (spring wheat (TRZAS); TRZAS, compound 8 0 + CQC-m 35 g/ha) | % visual injury, observed (Ob) (spring wheat (TRZAS); TRZAS, compound 8 0 + CQC-m 70 g/ha) | % visual injury, Ob (spring wheat (TRZAS); alone, 4.375 g/ha) | % visual injury, Ob (spring wheat (TRZAS); alone, 8.75 g/ha) | % visual injury, Ob (spring wheat (TRZAS); alone, 17.5 g/ha) | % visual injury, Ob (spring wheat (TRZAS); alone, 20 g/ha) | % visual injury, Ob (spring wheat (TRZAS); alone, 35 g/ha) | % visual injury, Ob (spring wheat (TRZAS); alone, 40 g/ha) | % visual injury, Ob (spring wheat (TRZAS); alone, 70 g/ha) | % visual injury, Ob (spring wheat (TRZAS); alone, 80 g/ha) | % visual injury, Ob (shepherd's purse (CAPBP); 4.375 g/ha) | % visual injury, Ob (shepherd's purse (CAPBP); 8.75 g/ha) | % visual injury, Ob (shepherd's purse (CAPBP); 17.5 g/ha) | % visual injury, Ob (shepherd's purse (CAPBP); 35 g/ha) | % visual injury, Ob (shepherd's purse (CAPBP); 70 g/ha) | % visual injury, Ob (lambsquarters (CHEAL); 4.375 g/ha, applied alone) | % visual injury, Ob (lambsquarters (CHEAL); 8.75 g/ha, applied alone) | % visual injury, Ob (lambsquarters (CHEAL); 17.5 g/ha, applied alone) | % visual injury, Ob (lambsquarters (CHEAL); 35 g/ha, applied alone) | % visual injury, Ob (lambsquarters (CHEAL); 70 g/ha, applied alone) | % visual injury, Ob (lambsquarters (CHEAL); compound 0, CQC-m 4.375 g/ha) | % visual injury, Ob (lambsquarters (CHEAL); compound 0, CQC-m 8.75 g/ha) | % visual injury, Ob (lambsquarters (CHEAL); compound 0, CQC-m 17.5 g/ha) | % visual injury, Ob (lambsquarters (CHEAL); compound 0, CQC-m 35 g/ha) | % visual injury, Ob (lambsquarters (CHEAL); compound 0, CQC-m 70 g/ha) | % visual injury, observed (Ob) (lambsquarters (CHEAL); compound 8 0 + CQC-m 4.375 g/ha) | % visual injury, observed (Ob) (lambsquarters (CHEAL); compound 8 0 + CQC-m 8.75 g/ha) | % visual injury, observed (Ob) (lambsquarters (CHEAL); compound 8 0 + CQC-m 17.5 g/ha) | % visual injury, observed (Ob) (lambsquarters (CHEAL); compound 8 0 + CQC-m 35 g/ha) | % visual injury, observed (Ob) (lambsquarters (CHEAL); compound 8 0 + CQC-m 70 g/ha) | pest or weed control at 4.375 g/ha (lambsquarters (CHEAL); Chenopodium album, post-emergence, alone, 4.375 g/ha, read-out: % visual injury, Ob) | pest or weed control at 8.75 g/ha (lambsquarters (CHEAL); Chenopodium album, post-emergence, alone, 8.75 g/ha, read-out: % visual injury, Ob) | pest or weed control at 17.5 g/ha (lambsquarters (CHEAL); Chenopodium album, post-emergence, alone, 17.5 g/ha, read-out: % visual injury, Ob) | pest or weed control at 20 g/ha (lambsquarters (CHEAL); Chenopodium album, post-emergence, alone, 20 g/ha, read-out: % visual injury, Ob) | pest or weed control at 35 g/ha (lambsquarters (CHEAL); Chenopodium album, post-emergence, alone, 35 g/ha, read-out: % visual injury, Ob) | pest or weed control at 40 g/ha (lambsquarters (CHEAL); Chenopodium album, post-emergence, alone, 40 g/ha, read-out: % visual injury, Ob) | pest or weed control at 70 g/ha (lambsquarters (CHEAL); Chenopodium album, post-emergence, alone, 70 g/ha, read-out: % visual injury, Ob) | pest or weed control at 80 g/ha (lambsquarters (CHEAL); Chenopodium album, post-emergence, alone, 80 g/ha, read-out: % visual injury, Ob) | % visual injury, Ob (wild chamomile (MATCH); compound 0, CQC-m 4.375 g/ha) | % visual injury, Ob (wild chamomile (MATCH); compound 0, CQC-m 8.75 g/ha) | % visual injury, Ob (wild chamomile (MATCH); compound 0, CQC-m 17.5 g/ha) | % visual injury, Ob (wild chamomile (MATCH); compound 0, CQC-m 35 g/ha) | % visual injury, Ob (wild chamomile (MATCH); compound 0, CQC-m 70 g/ha) | % visual injury, Ob (common poppy (PAPRH); 4.375 g/ha, applied alone) | % visual injury, Ob (common poppy (PAPRH); 8.75 g/ha, applied alone) | % visual injury, Ob (common poppy (PAPRH); 17.5 g/ha, applied alone) | % visual injury, Ob (common poppy (PAPRH); 35 g/ha, applied alone) | % visual injury, Ob (common poppy (PAPRH); 70 g/ha, applied alone) | % visual injury, Ob (common poppy (PAPRH); compound 0, CQC-m 4.375 g/ha) | % visual injury, Ob (common poppy (PAPRH); compound 0, CQC-m 8.75 g/ha) | % visual injury, Ob (common poppy (PAPRH); compound 0, CQC-m 17.5 g/ha) | % visual injury, Ob (common poppy (PAPRH); compound 0, CQC-m 35 g/ha) | % visual injury, Ob (common poppy (PAPRH); compound 0, CQC-m 70 g/ha) | % visual injury, Ob (common poppy (PAPRH); compound 0 g/ha, CQC-m 4.375 g/ha) | % visual injury, Ob (common poppy (PAPRH); compound 0 g/ha, CQC-m 8.75 g/ha) | % visual injury, Ob (common poppy (PAPRH); compound 0 g/ha, CQC-m 17.5 g/ha)
